Test results: patent publication US20240366728A1, “Treatment of Diabetes Mellitus” (Carmot Therapeutics Inc., priority 2023, published 2024)
Ends that are not written are not given here.

Columns and labels:
C57BL/6J-DIO mice = assay: intraperitoneal glucose tolerance test in DIO mice; type: in vivo, mouse; conditions: for efficacy in ipGTT eight hours post-drug administration (in words): C57BL/6J-DIO mice, single dose 2.4 nmol/kg
human GLP-1R = human GLP-1R (Homo sapiens, UniProt P43220); assay: receptor internalization (Nano-Glo HiBiT), human GLP-1R; type: cell-based; set-up: host or cells: HEK293
Sequence of human GLP-1R (P43220 24-463): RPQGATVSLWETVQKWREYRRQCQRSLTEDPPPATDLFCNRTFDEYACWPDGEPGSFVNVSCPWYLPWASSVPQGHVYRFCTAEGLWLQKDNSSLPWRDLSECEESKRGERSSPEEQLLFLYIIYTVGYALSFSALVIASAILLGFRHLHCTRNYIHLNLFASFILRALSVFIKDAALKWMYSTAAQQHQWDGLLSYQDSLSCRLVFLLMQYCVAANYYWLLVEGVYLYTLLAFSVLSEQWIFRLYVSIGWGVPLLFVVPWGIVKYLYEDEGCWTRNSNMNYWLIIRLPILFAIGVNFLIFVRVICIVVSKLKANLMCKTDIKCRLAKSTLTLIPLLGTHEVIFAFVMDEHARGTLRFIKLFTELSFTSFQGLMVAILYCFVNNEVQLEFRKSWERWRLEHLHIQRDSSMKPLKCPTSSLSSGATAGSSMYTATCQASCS
Procedure: GLP-1R and GIPR internalization were measured using Promega's Nano-Glo® HiBit extracellular detection system (Promega Corporation; Madison, WI). Hek293 cells were transiently transfected with HiBiT-tagged hGLP-1R or hGIPR plasmids (Promega Corporation; Madison, WI). Cells were lifted using the TrypLE express enzyme (ThermoFisher Scientific) and plated at 80,000-100,000 cells per well in 96 well plates. Cells were then treated with Nano-Glo HibiT extracellular buffer containing LgBiT protein (1:100), and the Nano-Glo HiBiT extracellular substrate (1:50).
GLP-1R and GIPR internalization was measured using Promega's Nano-Glo® HiBit extracellular detection system (Promega Corporation; Madison, WI). HEK293 cells were transiently transfected with low quantities of HiBiT-tagged hGLP-1R or hGIPR plasmids (Promega Corporation; Madison, WI). The next day, cells were lifted using TrypLE express enzyme (ThermoFisher Scientific) and plated at 80,000-100,000 cells per well in 96 well plates.

[1] = system: lean C57BL/6J, GLP-1R+/+ and GLP-1R-/- mice; assay: single intracerebroventricular injection: food consumption and body weight; conditions: lean mice, single ICV 0.025 nmol, up to 72 h
[2] = system: participants with obesity and participants with T2DM; assay: CT-868-003 crossover study: safety; type: in vivo, human; conditions: in vivo
Text: Safety assessments of this study included treatment-emergent adverse events (TEAEs), serious adverse events (SAEs), adverse events of special interest (AESI), vital signs, 12-lead electrocardiogram (ECG), clinical lab evaluations, and physical exam.
Safety assessments which occurred throughout the entire study, included monitoring of incidence and severity of AEs, treatment-emergent AEs (TEAEs) and AEs of special interest (AESIs) (e.g., GI events, hypoglycemia), clinical laboratory abnormalities (ECGs, chemistry, hematology, and urinalysis), and changes in vital sign measurements (BP, heart rate, respiratory rate, and aural temperature).
AE terms recorded by the Investigator were coded to system organ class (SOC) and preferred term (PT) using the Medical Dictionary for Regulatory Activities (MedDRA) version 24.0. Severity was collected using the Common Terminology Criteria for AEs (CTCAE) version 5.0 Toxicity Grade. Events with missing severity were summarized as Grade 3. TEAEs summarized by severity counted each participant once for the maximum severity within each SOC and PT within each in-house treatment period and overall. TEAEs marked with a relationship to study treatment as definitely, probable, possible, or missing were considered as related TEAEs. Events with missing relationship to study treatment were summarized as related. The number and percentage of participants with TEAEs were summarized by MedDRA-coded SOCs and PTs.

[3] = pharmacokinetics in CD-1 mice, single SC injection; conditions: 1 mg/kg SC
Procedure: Blood was kept on ice until centrifuged at 4600 rpm for five minutes at 4° C. Plasma was stored at −80° C. until analysis. Compounds were extracted from plasma and quantified against a standard curve using an AB Sciex 7500+LC-MS/MS system (FIG. 5).

For “FG-EGT-FTS-DLS-KQM-EEE-AVR-LFI-EWL-LAG-GPS-SGA-PPPS-NH2 (FGEGTFTSDLSKQMEEEAVRLFIEWLLAGGPSSGAPPPS-NH2) [Ex-Phe1, reference compound]”, the “glucose tolerance and body weight vs exendin-4 (in words)” value (C57BL/6J-DIO mice) was “improves glucose tolerance and decreases body weight more than exendin-4”, the “efficacy in ipGTT eight hours post-drug administration (in words)” value (C57BL/6J-DIO mice) was “remained efficacious” and the “signalling profile at GLP-1R (in words)” value (human GLP-1R) was “cAMP-biased agonist that prevents receptor internalization”. For the same compound, the “food consumption and body weight after ICV injection (in words)” value (from here on “food consumption and body weight”) [1] was “remained efficacious” and the “food consumption and body weight” value ([1]; listed as exendin-Phe1) was “greater reduction of food intake and much more prolonged body weight reduction as compared to exendin-4”.

For Exendin-4 [Ex-4, reference compound], the “efficacy in ipGTT eight hours post-drug administration (in words)” value (C57BL/6J-DIO mice) was “no longer effective”, the “food consumption and body weight” value [1] was “started to lose efficacy by 48 hours” and the “food consumption and body weight” value ([1]; listed as exendin-4) was “significant reduction of cumulative food consumption”.

With `CCCCCCCCCCCCCCCC(=O)N[C@@H](CCC(=O)NCCCC[C@H](NC(=O)[C@H](C)NC(=O)[C@H](C)NC(=O)[C@H](CCC(N)=O)NC(=O)CNC(=O)[C@H](CCC(=O)O)NC(=O)[C@H](CC(C)C)NC(=O)[C@H](Cc1ccc(O)cc1)NC(=O)[C@H](CO)NC(=O)[C@H](CO)NC(=O)[C@@H](NC(=O)[C@H](CC(=O)O)NC(=O)[C@H](CO)NC(=O)[C@@H](NC(=O)[C@H](Cc1ccccc1)NC(=O)[C@@H](NC(=O)CNC(=O)[C@H](CCC(=O)O)NC(=O)[C@H](C)NC(=O)[C@@H](N)Cc1cnc[nH]1)[C@@H](C)O)[C@@H](C)O)C(C)C)C(=O)N[C@@H](CCC(=O)O)C(=O)N[C@@H](Cc1ccccc1)C(=O)N[C@H](C(=O)N[C@@H](C)C(=O)N[C@@H](Cc1c[nH]c2ccccc12)C(=O)N[C@@H](CC(C)C)C(=O)N[C@H](C(=O)N[C@@H](CCCNC(=N)N)C(=O)NCC(=O)N[C@@H](CCCNC(=N)N)C(=O)NCC(=O)O)C(C)C)[C@@H](C)CC)C(=O)O` [liraglutide, Liraglutide, reference compound] the “AEs of Special Interest (AESI) Total” value [2] was 4 (40.0) n (%), the Abdominal pain [2] was 0 n (%) and the Anaemia [2] was 0 n (%). For the same compound, the “Any AESIs, Grade 2” value [2] was 1 (25.0%) n (%), the Arthralgia [2] was 0 n (%) and the “At Least 1 Study Drug Related TEAE” value [2] was 3 (30.0) n (%). The “At Least 1 TEAE” value [2] was 7 (70.0) n (%), the Back pain [2] was 0 n (%) and the “Blood and lymphatic system disorders” value [2] was 0 n (%). For the same compound, the Chills [2] was 0 n (%), the Coagulation test abnormal [2] was 0 n (%) and the Constipation [2] was 0 n (%). The Decreased appetite [2] was 0 n (%), the Diarrhoea [2] was 0 n (%) and the Dizziness [2] was 0 n (%). The Eructation [2] was 0 n (%), the Gastroesophageal reflux disease [2] was 0 n (%) and the “General disorders and administration site conditions” value [2] was 0 n (%). The Headache [2] was 0 n (%), the Hypoglycemia [2] was 3 (30.0) n (%) and the Infections and infestations [2] was 0 n (%). For the same compound, the “Injection Site Reaction” value [2] was 0 n (%), the Injection site haemorrhage [2] was 0 n (%) and the Injection site reactions [2] was 0 n (%). For the same compound, the Investigations [2] was 0 n (%), the “Musculoskeletal and connective tissue disorders” value [2] was 0 n (%) and the Nervous system disorders [2] was 0 n (%). For the same compound, the Peripheral swelling [2] was 0 n (%), the Rash [2] was 0 n (%) and the SAEs [2] was 0 n (%). The Skin hyperpigmentation [2] was 0 n (%), the “TEAEs leading to drug discontinuation” value [2] was 0 n (%) and the “Treatment Discontinuation” value [2] was 0 n (%). For the same compound, the Urinary tract infection [2] was 0 n (%), the Vomiting [2] was 0 n (%) and the “participants with Grade 1 hypoglycemia events” value [2] was 3 participants. The “times more exposure than CT-859” value [3] was 6 times.
